Test results published in patent US8431365B2, “β1,3-N-acetyl-D-galactosamine transferase protein, nucleic acid encoding the same and method of examining canceration using the same” (National Institute of Advanced Industrial Science and …, priority 2003, dated 2013).
Each block holds one compound with its values, some of them ahead of it.

Key:
Format in all cases: biochemical
mouse G34 = target: T1, mouse G34 (Mus musculus, UniProt Q8BG28); test: Substrate specificity of β1,3-N-acetylgalactosamine transferase activity of mouse G34; settings: for % (radioactivity relative to Bz-β-GlcNAc set to 100%): 10 nmol substrate, HEPES pH 7.4, MnCl2 10 mM, 37° C. 16 hours
T1 construct: made in house; host or cells: 293T cells transfected with pFLAG-CMV3-mG34A; purified from the supernatant
T1 sequence (Q8BG28 35-504): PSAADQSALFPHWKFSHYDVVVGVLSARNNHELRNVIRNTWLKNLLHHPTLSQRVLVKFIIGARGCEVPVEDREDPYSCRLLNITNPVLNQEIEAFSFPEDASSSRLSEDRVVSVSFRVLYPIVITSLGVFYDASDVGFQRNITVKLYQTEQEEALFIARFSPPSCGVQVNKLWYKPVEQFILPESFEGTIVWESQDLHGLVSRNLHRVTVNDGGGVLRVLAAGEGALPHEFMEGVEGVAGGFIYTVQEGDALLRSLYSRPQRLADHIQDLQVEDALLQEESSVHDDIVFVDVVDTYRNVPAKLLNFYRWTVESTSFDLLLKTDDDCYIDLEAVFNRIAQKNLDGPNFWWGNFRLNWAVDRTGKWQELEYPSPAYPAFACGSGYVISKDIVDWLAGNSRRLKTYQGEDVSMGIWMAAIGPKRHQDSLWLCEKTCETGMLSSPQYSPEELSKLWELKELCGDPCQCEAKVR
Excerpt: The following reaction system was used for examining mouse G34 for its substrate specificity in its β1,3-N-acetylgalactosamine transferase activity. In the reaction solutions shown below, each of the following was used at […] as an “acceptor substrate”: pNp-α-Gal, oNp-β-Gal, Bz-α-GlcNAc, Bz-β-GlcNAc, Bz-α-GalNAc, pNp-β-GalNAc, pNp-α-Glc, pNp-β-Glc, pNp-β-GlcA, pNp-α-Fuc, pNp-α-Xyl, pNp-β-Xyl, pNp-α-Man, lactoside-Bz, Lac-ceramide, Gal-ceramide, Gb3, globoside, Gal-β1-4GalNAc-α-pNp, Galβ1-3GlcNAc-β-Bz, GlcNAc-β1-4-GlcNAc-β-Bz, core1-pNp, core2-pNp, core3-pNp and core6-pNp (all purchased from SIGMA).
Each reaction solution was prepared as follows (final concentrations in parentheses): each substrate (10 nmol), HEPES (N-[2-hydroxyethyl]piperazine-N′-[2-ethanesulfonic acid]) (pH 7.4, 14 mM), MnCl2 (10 mM), Triton CF-54 (trade name) (0.3%), UDP-GalNAc (2 mM) and […] (40 nCi) were mixed and supplemented with 5 μl mouse G34 enzyme solution, followed by dilution with H2O to a total volume of 20 μl.
(§1) The above reaction mixtures were each reacted at 37° C. for 16 hours. After completion of the reaction, 200 μl H2O was added and each mixture was lightly centrifuged to obtain the supernatant. The supernatant was passed through a Sep-Pak plus C18 Cartridge (Waters), which had been washed once with 1 ml methanol and twice with 1 ml H2O and then equilibrated, to allow the substrate and product in the supernatant to adsorb to the cartridge. After washing the cartridge twice with 1 ml H2O, the adsorbed substrate and product were eluted with 1 ml methanol. The eluate was mixed with 5 ml liquid scintillator ACSII (Amersham Biosciences) and measured for the amount of radiation with a scintillation counter (Beckman Coulter).
The results thus measured were compared assuming that the radioactivity obtained using Bz-β-GlcNAc as a substrate was set to 100% (Table 11).

human G34 protein [1] = target: T2, human G34 protein (Homo sapiens, UniProt Q8NCR0); test: Acceptor substrate specificity to oligosaccharides; settings: for % (radioactivity relative to Bz-β-GlcNAc set to 100%): 50 nmol substrate, HEPES pH 7.4, MnCl2 10 mM, 37° C. 2 hours
T2 construct: made in house; host or cells: Sf21 insect cells (baculovirus, pFBIF-G34A)
T2 sequence (Q8NCR0 36-500): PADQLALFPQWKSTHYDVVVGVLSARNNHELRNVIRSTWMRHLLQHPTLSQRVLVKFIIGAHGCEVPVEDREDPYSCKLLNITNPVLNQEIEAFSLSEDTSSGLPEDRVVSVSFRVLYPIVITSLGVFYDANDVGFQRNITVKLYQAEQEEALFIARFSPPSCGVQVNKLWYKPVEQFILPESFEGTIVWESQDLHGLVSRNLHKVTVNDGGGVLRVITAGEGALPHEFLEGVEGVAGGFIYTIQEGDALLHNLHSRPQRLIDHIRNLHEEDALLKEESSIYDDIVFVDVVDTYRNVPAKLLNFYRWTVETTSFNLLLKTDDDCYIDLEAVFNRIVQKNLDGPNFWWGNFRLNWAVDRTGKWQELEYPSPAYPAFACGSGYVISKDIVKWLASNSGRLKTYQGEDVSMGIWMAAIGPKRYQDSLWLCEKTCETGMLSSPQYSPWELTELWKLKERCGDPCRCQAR
Excerpt: The following reaction system was used for examining the acceptor substrate specificity to oligosaccharides. The acceptor substrates used were pNp-α-Gal, oNp-β-Gal, Bz-α-GlcNAc, Bz-β-GlcNAc, Bz-α-GalNAc, pNp-β-GalNAc, pNp-α-Glc, pNp-β-Glc, pNp-β-GlcA, pNp-α-Fuc, pNp-α-Xyl, pNp-β-Xyl, pNp-α-Man, lactoside-Bz, Lac-ceramide, Gal-ceramide, paragloboside, globoside, Gal-β1-4 GalNAc-α-pNp, Gal-β1-3 GlcNAc-β-pNp, GlcNAc-[…] GlcNAc β-Bz, pNp-core1 (Gal-β1-3 GalNAc-α-pNp), pNp-core2 (Gal-β1-3 (GlcNAc-β1-6) GalNAc-α-pNp), pNp-core3 (GlcNAc-β1-3 GalNAc-α-pNp) and pNp-core6 (GlcNAc-β1-6 GalNAc-α-pNp). “Lac” represents a D-lactose residue.
Each reaction solution (final concentrations in parentheses) was prepared by adding each substrate (50 nmol), HEPES buffer (pH 7.4, 14 mM), Triton CF-54 (trade name) (0.3%), UDP-GalNAc (2 mM), MnCl2 (10 mM), UDP-[^3H]GlcNAc and 5 μl G34 enzyme solution, followed by dilution with H2O to a total volume of […].
as §1, with “2” for “16”
The results thus measured were compared assuming that the radioactivity obtained using Bz-β-GlcNAc as a substrate was set to 100% (see Table 5).

human G34 protein [2] = target: T2, human G34 protein; test: RI assay (divalent ion requirement)
[3] = concentration 2.5 mM, acceptor Bz-β-GlcNAc, HEPES pH 7.4
[4] = concentration 5 mM, acceptor Bz-β-GlcNAc, HEPES pH 7.4
[5] = concentration 10 mM, acceptor Bz-β-GlcNAc, HEPES pH 7.4
[6] = concentration 20 mM, acceptor Bz-β-GlcNAc, HEPES pH 7.4

SMILES: CC(=O)N[C@H]1[C@H](OCc2ccccc2)O[C@H](CO)[C@@H](O)[C@@H]1O [Bz-β-GlcNAc]
increase in radioactivity (mouse G34): largest increase in radioactivity
% (radioactivity relative to Bz-β-GlcNAc set to 100%) (mouse G34): 100%
% (radioactivity relative to Bz-β-GlcNAc set to 100%) (human G34 protein [1]): 100%

SMILES: [Cl-].[Cl-].[Co+2] [Co, CoCl2]
DPM (human G34 protein [2]; concentration 2.5 mM): 10979.99 DPM
DPM (human G34 protein [2]; concentration 5 mM): 9503.91 DPM
DPM (human G34 protein [2]; concentration 10 mM): 10979.99 DPM
DPM (human G34 protein [2]; concentration 20 mM): 8070.47 DPM
DPM (human G34 protein [2]; concentration 40 mM): 7854.92 DPM

SMILES: [Cu+2] [Cu]
Mn-induced enhancement of the activity on addition of Cu (human G34 protein [2]): completely eliminated

SMILES: O=C(O)CN(CCN(CC(=O)O)CC(=O)O)CC(=O)O [EDTA]
DPM (human G34 protein [2]; pH 7.4): 149.32 DPM

SMILES: CC(=O)N[C@H]1[C@H](OCc2ccccc2)O[C@H](CO)[C@@H](O[C@@H]2O[C@H](CO)[C@@H](O)[C@H](O)[C@H]2NC(C)=O)[C@@H]1O [GlcNAcβ1-4GlcNAc-β-Bz]
% (radioactivity relative to Bz-β-GlcNAc set to 100%) (mouse G34): 10%
% (radioactivity relative to Bz-β-GlcNAc set to 100%) (human G34 protein [1]): 29%

SMILES: [Cl][Mn][Cl] [Mn, MnCl2]
DPM (human G34 protein [2]; [3]): 7260.09 DPM
DPM (human G34 protein [2]; [4]): 8270.23 DPM
DPM (human G34 protein [2]; [5]): 7748.77 DPM
DPM (human G34 protein [2]; [6]): 7515.86 DPM

SMILES: CC(=O)N[C@H]1[C@H](OC[C@H]2O[C@H](Oc3ccc([N+](=O)[O-])cc3)[C@H](NC(C)=O)[C@@H](O[C@@H]3O[C@H](CO)[C@H](O)[C@H](O)[C@H]3O)[C@H]2O)O[C@H](CO)[C@@H](O)[C@@H]1O [core2-pNp, Gal-β1-3-(GlcNAc-β1-6)GalNAc-α-pNp]
% (radioactivity relative to Bz-β-GlcNAc set to 100%) (mouse G34): 25%
increase in radioactivity (human G34 protein [1]): largest increase in radioactivity
% (radioactivity relative to Bz-β-GlcNAc set to 100%) (human G34 protein [1]): 185%

The remaining lines, values ahead:

DPM (human G34 protein [2]; [3]): 4800.03 DPM
DPM (human G34 protein [2]; [4]): 8692.15 DPM
DPM (human G34 protein [2]; [5]): 8980.56 DPM
DPM (human G34 protein [2]; [6]): 6726.32 DPM
DPM (human G34 protein [2]; concentration 40 mM, acceptor Bz-β-GlcNAc, HEPES pH 7.4): 5592.88 DPM
SMILES: [Cl-].[Cl-].[Mg+2] [Mg, MgCl2]

% (radioactivity relative to Bz-β-GlcNAc set to 100%) (mouse G34): 14%
% (radioactivity relative to Bz-β-GlcNAc set to 100%) (human G34 protein [1]): 8%
SMILES: CC(=O)NC1C(OC2C(O)C(CO)OC(Oc3ccc([N+](=O)[O-])cc3)C2NC(C)=O)OC(CO)C(O)C1O (stereo not drawn) [core3-pNp, GlcNAc-β1-3-GalNAc-α-pNp]

% (radioactivity relative to Bz-β-GlcNAc set to 100%) (mouse G34): 18%
% (radioactivity relative to Bz-β-GlcNAc set to 100%) (human G34 protein [1]): 19%
SMILES: CC(=O)N[C@H]1[C@@H](Oc2ccc([N+](=O)[O-])cc2)O[C@H](CO[C@@H]2O[C@H](CO)[C@@H](O)[C@H](O)[C@H]2NC(C)=O)[C@H](O)[C@@H]1O [core6-pNp, GlcNAc-β1-6-GalNAc-α-pNp]

% (radioactivity relative to Bz-β-GlcNAc set to 100%) (mouse G34): 12%
SMILES: O=[N+]([O-])c1ccc(O[C@@H]2O[C@H](CO)[C@@H](O)[C@H](O)[C@H]2O)cc1 [pNp-β-Glc]
